Source: publication PMC7954794, “Protein context shapes the specificity of SH3 domain-mediated interactions in vivo” (Nature Communications, 2021)

How the values were obtained:
[1] = system: growth of yeast strains under 51 stress conditions; assay: Growth assays in 51 stress conditions (Fig. 1E-F, S2D, S5B); type: cell-based, Saccharomyces cerevisiae; parameters: key to Growth (Fig. S2D) / growth of ABP1 SH3-swapped strains in stress condition: log2 colony size, average of median per strain (growth score); conditions: for growth of ABP1 SH3-swapped strains in stress condition: FigS2D; for Growth (Fig. S2D): ABP1 SH3-swapped strains
Description: All WT, SH3-deleted, KO (except for CDC25 which is the only essential SH3-containing gene in yeast), ABP1 SH3-swapped, and SLA1 SH3-shuffled strains were grown on omnitrays in 1536 formats and robotically manipulated with a pin tool (the DHFR F[1,2] bait strains were used except for the KO strains). Each strain was randomly positioned in 6 replicates per plate and two plates per condition were performed, for 12 replicates per strain in total. A border of two rows and two columns of WT strains (BY4741) around the plate was used to remove border effects. Strains were grown on YPD media for two days at 30 °C. They were then replicated on 51 different media that are described in the Supplementary Table 3 and were incubated at 37 °C in a spImager custom platform with images acquired every two hours for four days. The colony sizes from plate pictures were also measured with the R package “Gitter” and the output was manually inspected. Positions with an abnormality in colony circularity were removed. The colony sizes after 74 h of incubation at 37 °C were log2 transformed and used for the analyses. First, the differences between the two plate replicates were corrected to remove plate effects. The median colony size was calculated for each strain per plate. Strains with a difference in their median colony size of more than two between the two plate replicates were removed. Finally, the average of the median colony size was calculated for each strain per condition (growth score).

[2] = system: PPIs identified as affected by the SH3 domain deletions; assay: Liquid DHFR-PCA low-throughput validation of PPIs affected by SH3 deletion (Fig. S1D-E); type: cell-based, Saccharomyces cerevisiae; conditions: Deletedscore/WTscore
Description: Liquid DHFR-PCA low-throughput experiments were performed to validate the PPIs identified as affected by the SH3 domain deletions in the high-throughput solid DHFR-PCA screen (256 PPIs weaker or lost and 116 PPIs stronger or gained following domain deletions). Mating and the diploid selection were performed as described for the large-scale experiment, with the exception that the plates were in 384 formats. Following the second diploid selection, diploid cells were inoculated in a 96 v-shaped well plate using a robotically manipulated 96 pin tool in a synthetic complete medium with MSG at pH 6.0 with NAT and HPH. After 48 h of growth, optical density (OD) was read using a TECAN Infinite F200 Pro, and dilutions to 1 OD in sterile nanopure water were prepared. Cells were then diluted to 0.1 OD by combining 25 µl of cell suspension at OD = 1 and 225 µl of PCA selection media without agar in a 96-wells plate. Plates were incubated at 30 °C in a TECAN Infinite M Nano and OD was monitored each 15 min for 72 h.

For RVS167, the “growth of ABP1 SH3-swapped strains in stress condition” value (“growth of ABP1 SH3-swapped strains” for short) ([1]; Bathophenanthroline.0.1uM) was 10.8266, the “growth of ABP1 SH3-swapped strains” value ([1]; Bathophenanthroline.10uM) was 10.6504 and the “growth of ABP1 SH3-swapped strains” value ([1]; Bathophenanthroline.1uM) was 10.7571. For the same substance, the “growth of ABP1 SH3-swapped strains” value ([1]; CaCl2.100mM) was 10.7957, the “growth of ABP1 SH3-swapped strains” value ([1]; CaCl2.250mM) was 10.7147 and the “growth of ABP1 SH3-swapped strains” value ([1]; CaCl2.500mM) was 10.2304. For the same substance, the “growth of ABP1 SH3-swapped strains” value ([1]; Caffein.10mM) was 10.0011, the “growth of ABP1 SH3-swapped strains” value ([1]; Caffein.2mM) was 10.9656 and the “growth of ABP1 SH3-swapped strains” value ([1]; CdCl2.100uM) was 9.478. The “growth of ABP1 SH3-swapped strains” value ([1]; CdCl2.10uM) was 10.8675, the “growth of ABP1 SH3-swapped strains” value ([1]; CdCl2.50uM) was 10.0052 and the “growth of ABP1 SH3-swapped strains” value ([1]; CuSO4.1mM) was 10.4401. The “growth of ABP1 SH3-swapped strains” value ([1]; CuSO4.5mM) was 7.809, the “growth of ABP1 SH3-swapped strains” value ([1]; Cycloheximide.0.05.uM) was 11.0732 and the “growth of ABP1 SH3-swapped strains” value ([1]; Cycloheximide.0.2.uM) was 10.5897. The “growth of ABP1 SH3-swapped strains” value ([1]; Cycloheximide.0.5.uM) was 10.0755, the “growth of ABP1 SH3-swapped strains” value ([1]; DMSO.2.) was 10.9922 and the “growth of ABP1 SH3-swapped strains” value ([1]; DMSO.6.) was 9.827. The “growth of ABP1 SH3-swapped strains” value ([1]; DMSO.8.) was 9.078, the “growth of ABP1 SH3-swapped strains” value ([1]; Ethanol.2.) was 10.7562 and the “growth of ABP1 SH3-swapped strains” value ([1]; Ethanol.6.) was 10.3054. The “growth of ABP1 SH3-swapped strains” value ([1]; Ethanol.8.) was 10.1073, the “growth of ABP1 SH3-swapped strains” value ([1]; Galactose.2.) was 10.7616 and the “growth of ABP1 SH3-swapped strains” value ([1]; Glycerol.2.) was 9.801. For the same substance, the “growth of ABP1 SH3-swapped strains” value ([1]; Hydroxyurea.25mM) was 10.7452, the “growth of ABP1 SH3-swapped strains” value ([1]; Hygromycin.190uM) was 10.9449 and the “growth of ABP1 SH3-swapped strains” value ([1]; Hygromycin.19uM) was 10.972. The “growth of ABP1 SH3-swapped strains” value ([1]; Hygromycin.95uM) was 11.0099, the “growth of ABP1 SH3-swapped strains” value ([1]; MMS.0.004.) was 10.8938 and the “growth of ABP1 SH3-swapped strains” value ([1]; MMS.0.02.) was 10.6752. The “growth of ABP1 SH3-swapped strains” value ([1]; MMS.0.04.) was 9.941, the “growth of ABP1 SH3-swapped strains” value ([1]; Menadione.100uM) was 10.5548 and the “growth of ABP1 SH3-swapped strains” value ([1]; Menadione.200uM) was 10.4212. The “growth of ABP1 SH3-swapped strains” value ([1]; Menadione.50uM) was 10.7634, the “growth of ABP1 SH3-swapped strains” value ([1]; NaCl.0.25M) was 10.7655 and the “growth of ABP1 SH3-swapped strains” value ([1]; NaCl.1M) was 9.597. The “growth of ABP1 SH3-swapped strains” value ([1]; Nitroquinoline.10uM) was 10.6917, the “growth of ABP1 SH3-swapped strains” value ([1]; Nitroquinoline.50uM) was 10.5789 and the “growth of ABP1 SH3-swapped strains” value ([1]; Nystatin.0.01uM) was 10.9774. For the same substance, the “growth of ABP1 SH3-swapped strains” value ([1]; Nystatin.0.1uM) was 10.9878, the “growth of ABP1 SH3-swapped strains” value ([1]; Raffinose.2.) was 11.0045 and the “growth of ABP1 SH3-swapped strains” value ([1]; Rapamycin.10nM) was 9.889. For the same substance, the “growth of ABP1 SH3-swapped strains” value ([1]; Rapamycin.50nM) was 9.373, the “growth of ABP1 SH3-swapped strains” value ([1]; SC.pH3) was 10.3957 and the “growth of ABP1 SH3-swapped strains” value ([1]; SC.pH6) was 10.965. The “growth of ABP1 SH3-swapped strains” value ([1]; SDS.0.01.) was 10.9519, the “growth of ABP1 SH3-swapped strains” value ([1]; SDS.0.02.) was 11.0022 and the “growth of ABP1 SH3-swapped strains” value ([1]; SDS.0.05.) was 10.8383. For the same substance, the “growth of ABP1 SH3-swapped strains” value ([1]; Sorbitol.10mM) was 10.9602, the “growth of ABP1 SH3-swapped strains” value ([1]; Sorbitol.1mM) was 11.0196 and the “growth of ABP1 SH3-swapped strains” value ([1]; Sorbitol.5mM) was 10.9136. For the same substance, the Ratio ([2]; prey YLR144C_1) was 0.9983, the Ratio ([2]; prey YLR166C_1) was 0.4047 and the Ratio ([2]; prey YLR314C_1) was 1.009. It also gave a Ratio ([2]; prey YLR332W_1) of 0.5527, a Ratio ([2]; prey YML016C_1) of 0.7209 and a Ratio ([2]; prey YMR192W_1) of 0.4415. For the same substance, the Ratio ([2]; prey YNL084C_1) was 0.8207, the Ratio ([2]; prey YNL106C_1) was 0.4642 and the Ratio ([2]; prey YNL255C_1) was 0.9975. The Ratio ([2]; prey YPL246C_1) was 0.6027, the Ratio ([2]; prey YPL249C_1) was 0.4423 and the Ratio ([2]; prey YPR055W_1) was 0.5489.
In the case of CDC25, the “Growth (Fig. S2D)” value ([1]; Bathophenanthroline.0.1uM) is reported as 10.8311, the “Growth (Fig. S2D)” value ([1]; Bathophenanthroline.10uM) is reported as 10.71 and the “Growth (Fig. S2D)” value ([1]; Bathophenanthroline.1uM) is reported as 10.807. The “Growth (Fig. S2D)” value ([1]; CaCl2.100mM) was 10.8749, the “Growth (Fig. S2D)” value ([1]; CaCl2.250mM) was 10.774 and the “Growth (Fig. S2D)” value ([1]; CaCl2.500mM) was 10.2891. The “Growth (Fig. S2D)” value ([1]; Caffein.10mM) was 10.1016, the “Growth (Fig. S2D)” value ([1]; Caffein.2mM) was 11.0786 and the “Growth (Fig. S2D)” value ([1]; CdCl2.100uM) was 9.608. For the same substance, the “Growth (Fig. S2D)” value ([1]; CdCl2.10uM) was 10.8752, the “Growth (Fig. S2D)” value ([1]; CdCl2.50uM) was 9.913 and the “Growth (Fig. S2D)” value ([1]; CuSO4.1mM) was 10.4484. For the same substance, the “Growth (Fig. S2D)” value ([1]; CuSO4.5mM) was 7.922, the “Growth (Fig. S2D)” value ([1]; Cycloheximide.0.05.uM) was 11.0566 and the “Growth (Fig. S2D)” value ([1]; Cycloheximide.0.2.uM) was 10.636. The “Growth (Fig. S2D)” value ([1]; Cycloheximide.0.5.uM) was 10.117, the “Growth (Fig. S2D)” value ([1]; DMSO.2.) was 11.0377 and the “Growth (Fig. S2D)” value ([1]; DMSO.6.) was 9.934. For the same substance, the “Growth (Fig. S2D)” value ([1]; DMSO.8.) was 9.291, the “Growth (Fig. S2D)” value ([1]; Ethanol.2.) was 10.7941 and the “Growth (Fig. S2D)” value ([1]; Ethanol.6.) was 10.2979. For the same substance, the “Growth (Fig. S2D)” value ([1]; Ethanol.8.) was 10.0965, the “Growth (Fig. S2D)” value ([1]; Galactose.2.) was 10.7721 and the “Growth (Fig. S2D)” value ([1]; Glycerol.2.) was 9.727. For the same substance, the “Growth (Fig. S2D)” value ([1]; Hydroxyurea.25mM) was 10.7845, the “Growth (Fig. S2D)” value ([1]; Hygromycin.190uM) was 10.9998 and the “Growth (Fig. S2D)” value ([1]; Hygromycin.19uM) was 11.0292. The “Growth (Fig. S2D)” value ([1]; Hygromycin.95uM) was 11.0306, the “Growth (Fig. S2D)” value ([1]; MMS.0.004.) was 10.9713 and the “Growth (Fig. S2D)” value ([1]; MMS.0.02.) was 10.7211. The “Growth (Fig. S2D)” value ([1]; MMS.0.04.) was 9.98, the “Growth (Fig. S2D)” value ([1]; Menadione.100uM) was 10.5959 and the “Growth (Fig. S2D)” value ([1]; Menadione.200uM) was 10.4955. The “Growth (Fig. S2D)” value ([1]; Menadione.50uM) was 10.8366, the “Growth (Fig. S2D)” value ([1]; NaCl.0.25M) was 10.7898 and the “Growth (Fig. S2D)” value ([1]; NaCl.1M) was 9.773. The “Growth (Fig. S2D)” value ([1]; Nitroquinoline.10uM) was 10.6639, the “Growth (Fig. S2D)” value ([1]; Nitroquinoline.50uM) was 10.6019 and the “Growth (Fig. S2D)” value ([1]; Nystatin.0.01uM) was 11.0504. The “Growth (Fig. S2D)” value ([1]; Nystatin.0.1uM) was 11.1, the “Growth (Fig. S2D)” value ([1]; Raffinose.2.) was 11.0411 and the “Growth (Fig. S2D)” value ([1]; Rapamycin.10nM) was 9.922. The “Growth (Fig. S2D)” value ([1]; Rapamycin.50nM) was 9.425, the “Growth (Fig. S2D)” value ([1]; SC.pH3) was 10.4587 and the “Growth (Fig. S2D)” value ([1]; SC.pH6) was 11.0388. The “Growth (Fig. S2D)” value ([1]; SDS.0.01.) was 11.0329, the “Growth (Fig. S2D)” value ([1]; SDS.0.02.) was 11.0194 and the “Growth (Fig. S2D)” value ([1]; SDS.0.05.) was 10.8768. The “Growth (Fig. S2D)” value ([1]; Sorbitol.10mM) was 11.0003, the “Growth (Fig. S2D)” value ([1]; Sorbitol.1mM) was 11.0466 and the “Growth (Fig. S2D)” value ([1]; Sorbitol.5mM) was 10.9359.
